Reference: paper PMC6324813, “Biological evaluation of isoflavonoids from Genista halacsyi using estrogen-target cells: Activities of glucosides compared to aglycones” (PLoS ONE, 2019)

What was measured:
ERα [1] = target: T1, ERα (Homo sapiens, UniProt P03372); assay: ERE-dependent luciferase gene transcription in MCF-7:D5L cells; format: cell-based; parameters: MCF-7:D5L cells, a clone of MCF-7 cells stably transfected with an Estrogen Response Element (ERE)-endowed reporter plasmid; endogenous in cells; host or cells: MCF-7:D5L (MCF-7 clone carrying pERE-Gl-Luciferase); settings: for Induction of ERE-dependent Luciferase Transcription (MCF-7:D5L cells) AUC (%): % of AUC of luciferase response of archetypal 3, 4, 5 or 8 up to 0.3, 10, 1.0 and 3.0 μM; for Induction of luciferase gene transcription, MCF-7:D5L cells, Agonism at 1μΜ, class: compounds 1 μM, 18 h; for Induction of ERE-dependent Luciferase Transcription (MCF-7:D5L cells) EC25E2: concentration required to achieve 25% of the effect of 0.1 nM E2; for EC50: concentration required to achieve 50% of the effect of 0.1 nM E2, read-out: Induction of ERE-dependent Luciferase Transcription (MCF-7:D5L cells) EC50E2
T1 sequence (P03372 1-595): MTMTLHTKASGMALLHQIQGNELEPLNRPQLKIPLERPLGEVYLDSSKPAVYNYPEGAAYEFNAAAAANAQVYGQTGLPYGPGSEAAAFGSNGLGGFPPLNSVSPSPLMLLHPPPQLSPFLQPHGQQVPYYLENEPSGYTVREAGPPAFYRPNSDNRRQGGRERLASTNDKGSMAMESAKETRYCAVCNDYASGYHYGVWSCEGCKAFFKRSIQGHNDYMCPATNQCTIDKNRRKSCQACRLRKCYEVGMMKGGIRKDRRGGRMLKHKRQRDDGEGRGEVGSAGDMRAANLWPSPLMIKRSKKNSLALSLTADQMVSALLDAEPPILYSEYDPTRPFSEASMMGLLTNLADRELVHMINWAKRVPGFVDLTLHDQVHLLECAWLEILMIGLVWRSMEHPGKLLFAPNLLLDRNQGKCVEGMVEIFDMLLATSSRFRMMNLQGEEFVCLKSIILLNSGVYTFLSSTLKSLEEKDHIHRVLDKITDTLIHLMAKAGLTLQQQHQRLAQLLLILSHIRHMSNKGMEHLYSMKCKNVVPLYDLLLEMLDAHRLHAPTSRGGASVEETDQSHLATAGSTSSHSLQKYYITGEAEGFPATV
Description: (§1) Assessment of ER/ERE-dependent luciferase gene transcription in MCF-7:D5L (express ERα) and HEK:ERβ cells (express ERβ) and determination of ER transcriptional agonism was carried as already described. Briefly, the cells were plated in 96-well plates at a density of 12,000 cells per well in phenol-red-free MEM (MCF-7:D5L cells) or phenol-red-free DMEM (HEK:ERβ cells) supplemented with 1 μg/mL insulin and 5% DCC-FBS. […] The AUC of the isoflavonoids of each group were then expressed as % of the AUC of the respective archetypal isoflavone. Since AUC data combine the efficacy as well as the potency of cell response into a single parameter, the %AUC data were considered here as a more reliable measure of relative ER/ERE-dependent luciferase expression of the test compounds.

MCF-7 cells = assay: MCF-7 cell proliferation (MTT); format: cell-based, human; settings: for Induction of cell proliferation (MCF-7 cells) Agonism at 1μΜ, class: compounds 1 μM, 72 h
Description: Test compound effects on the proliferation of MCF-7 and MDA-MB-231 cells were assessed as previously described.

Ishikawa cells = assay: Induction of AlkP expression in Ishikawa cells; format: cell-based, human; settings: for Induction of Alkaline Phosphatase Expression (Ishikawa cells) AUC (%): % of AUC of luciferase response of archetypal 3, 4, 5 or 8 up to 0.3, 10, 1.0 and 3.0 μM; for Ratio of AUC (AlkP / Lucif): AUCAlkP / AUCluciferase; for EC (25% of 0.1 nM E2 effect): concentration required to achieve 25% of the effect of 0.1 nM E2, read-out: Induction of Alkaline Phosphatase Expression (Ishikawa cells) EC25E2; for EC50: concentration required to achieve 50% of the effect of 0.1 nM E2, read-out: Induction of Alkaline Phosphatase Expression (Ishikawa cells) EC50E2; for Induction of AlkP expression (Ishikawa cells) Agonism at 1μΜ, class: compounds 1 μM
Description: Induction of AlkP expression of Ishikawa cells is considered as a reliable in vitro measure of estrogenic activity. Assessment of AlkP expression in Ishikawa cells was carried as already described. Briefly, the cells were plated in 96-well plates at a density of 12,000 cells per well in phenol-red-free MEM supplemented with 1 μg/mL insulin and 5% DCC-FBS. […] Data on the dependence of AlkP activity on isoflavonoid concentration were curve fitted using SigmaPlot10 (SPSS Inc) and the numerical data of curve fitting were used to determine AUC as described above, using for the calculation of AUC of a particular AlkP response the very same concentration used for the respective luciferase response. The AUC of AlkP responses of the isoflavonoids of a group were expressed as % of the AUC of the luciferase response of the respective archetypal isoflavone.

ERβ [2] = target: T2, ERβ (Homo sapiens, UniProt Q92731); assay: ERE-dependent luciferase gene transcription in HEK:ERβ cells; format: cell-based; parameters: expressed in transfected cells; host or cells: HEK-293 (HEK:ERβ clone, with pERE-tk-Luciferase); settings: for Induction of luciferase gene transcription, HEK:ERβ cells, Agonism at 1μΜ, class: compounds 1 μM; for Induction of luciferase gene transcription, HEK:ERβ cells, Agonism at 1μΜ, class / activation at 1 µM: 18 h; for activation at 1 µM: read-out: Induction of luciferase gene transcription through ERβ, HEK:ERβ cells, Agonism at 1μΜ (% of 0.1nM E2); for ERβ-dependent gene transcription agonist effect compared to the effect of 0.1 nM estradiol: isoflavonoids 1 μM, statistically significant effects
T2 sequence (Q92731 whole entry): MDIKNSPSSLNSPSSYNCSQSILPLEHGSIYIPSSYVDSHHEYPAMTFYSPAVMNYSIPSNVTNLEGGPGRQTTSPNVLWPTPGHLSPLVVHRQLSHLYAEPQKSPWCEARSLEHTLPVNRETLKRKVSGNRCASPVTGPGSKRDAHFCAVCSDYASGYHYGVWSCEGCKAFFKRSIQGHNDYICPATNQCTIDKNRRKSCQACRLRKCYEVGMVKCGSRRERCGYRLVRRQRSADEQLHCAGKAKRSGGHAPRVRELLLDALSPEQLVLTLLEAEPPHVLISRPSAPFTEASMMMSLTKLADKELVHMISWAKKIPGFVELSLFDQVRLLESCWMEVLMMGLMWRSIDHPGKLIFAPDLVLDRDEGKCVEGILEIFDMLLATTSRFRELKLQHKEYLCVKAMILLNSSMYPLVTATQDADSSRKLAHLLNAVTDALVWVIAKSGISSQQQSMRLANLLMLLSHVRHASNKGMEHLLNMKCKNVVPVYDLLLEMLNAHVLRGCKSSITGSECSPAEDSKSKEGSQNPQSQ
Description: as §1

ERα [3] = target: T1, ERα; assay: ER binding competitor assay (fluorescent estrogen ES2), ERα; parameters: purchased Invitrogen; settings: RBA = (IC50 estradiol/IC50 compound) × 100; ES2 1 nM; estradiol set equal to 100
ERβ [4] = target: T2, ERβ; assay: ER binding competitor assay (fluorescent estrogen ES2), ERβ; parameters: purchased Invitrogen; settings: for RBAβ / RBAα: ERβ-binding selectivity; for RBAβ: RBA = (IC50 estradiol/IC50 compound) × 100, ES2 1 nM, estradiol set equal to 100

SMILES | Induction of ERE-dependent Luciferase Transcription (MCF-7:D5L cells) AUC (%) (ERα [1]) | Induction of luciferase gene transcription, MCF-7:D5L cells, Agonism at 1μΜ, class (ERα [1]) | Induction of ERE-dependent Luciferase Transcription (MCF-7:D5L cells) EC25E2 (ERα [1]) [µM] | EC50 (ERα [1]) [µM] | Induction of cell proliferation (MCF-7 cells) Agonism at 1μΜ, class (MCF-7 cells) | AlkP response lower than ERα-transcriptional response (relative AUC ratios) (Ishikawa cells) | Induction of Alkaline Phosphatase Expression (Ishikawa cells) AUC (%) (Ishikawa cells) | Ratio of AUC (AlkP / Lucif) (Ishikawa cells) | EC (25% of 0.1 nM E2 effect) (Ishikawa cells; Homo sapiens, Ishikawa, 72 h) [µM] | activation at 1 µM (Ishikawa cells; Homo sapiens, Ishikawa, 72 h, read-out: Induction of AlkP expression (Ishikawa cells) Agonism at 1μΜ (% of 0.1nM E2)) [%] | EC50 (Ishikawa cells; Homo sapiens, Ishikawa) [µM] | Induction of luciferase gene transcription, HEK:ERβ cells, Agonism at 1μΜ, class (ERβ [2]) | RBAα (ERα [3]) | RBAβ / RBAα (ERβ [4]) | RBAβ (ERβ [4]) | activation at 1 µM (MCF-7 cells; Homo sapiens, MCF7, 72 h, read-out: Induction of cell proliferation (MCF-7 cells) Agonism at 1μΜ (% of 0.1nM E2)) [%] | MCF-7 cell proliferation agonist effect compared to the effect of 0.1 nM estradiol (MCF-7 cells; isoflavonoids 1 μM, statistically significant effects) | Induction of AlkP expression (Ishikawa cells) Agonism at 1μΜ, class (Ishikawa cells; 72 h) | activation at 1 µM (ERβ [2]) [%] | ERβ-dependent gene transcription agonist effect compared to the effect of 0.1 nM estradiol (ERβ [2])
COc1cc(-c2coc3c(C4OC(CO)C(O)C(O)C4O)c(O)cc(O)c3c2=O)ccc1O (stereo not shown) [Compound 13, 8-C-glucopyranosyl-3΄-O-methylorobol] | 77±17 | Marginal (⩽10%) | 2.20 ± 0.18 | 3.42 ± 0.91 | Marginal (⩽10%) | ~ 30% | 61±11 | 0.79±0.13 | 1.01 ± 0.27 | 15 ± 4 | 2.34 ± 0.65 | Marginal (⩽10%) | 0.12 ± 0.05 | 1.00 | 0.12 ± 0.04 | – | – | – | – | –
COc1cc(O)cc2occ(-c3ccc(O)cc3)c(=O)c12 [Compound 4, isoprunetin] | 100±14 | Marginal (⩽10%) | 3.72 ± 0.63 | 7.32 ± 2.18 | – | – | 94±16 | 0.94±0.03 | 3.9 ± 0.19 | – | 7.94 ± 2.28 | – | – | 5.00 | 0.15 ± 0.05 | 19 ± 6 | lower than | Marginal (⩽10%) | 27 ± 5 | lower than
COc1cc(O)cc2occ(-c3ccc(O)c(O)c3)c(=O)c12 [Compound 7, 5-O-methylorobol] | 103±9 | Marginal (⩽10%) | 5.35 ± 0.61 | 9.5 ± 1.57 | Marginal (⩽10%) | ~ 30% | 76±15 | 0.74±0.13 | 7.08 ± 0.45 | – | 11.8 ± 2.5 | – | 0.13 ± 0.04 | 1.15 | 0.15 ± 0.04 | – | – | Marginal (⩽10%) | 13 ± 4 | lower than
O=c1c(-c2ccc(O)c(O)c2)coc2c(C3OC(CO)C(O)C(O)C3O)c(O)cc(O)c12 (stereo not shown) [Compound 9, 8-C-glucopyranosyl-orobol] | 1.6±0.3 | Marginal (⩽10%) | >30 | > 30 | Marginal (⩽10%) | ~ 30% | 1.1±0.1 | 0.69±0.07 | > 30 | – | > 30 | Marginal (⩽10%) | 0.11 ± 0.03 | 0.45 | 0.05 ± 0.01 | – | – | Marginal (⩽10%) | – | –
